Assay results as given in patent publication US6465490B1, “Sulfuric acid mono-[3({1-[2-(4-fluoro-phenyl)-ethyl]-piperidin-4-yl}-hydroxy-methyl)-2-methoxy-phenyl]ester” (Aventis Pharmaceuticals Inc., priority 1999, dated 2002).

Assay: Bovine Brain Endothelial Cells (BBMEC) transport studies, in vitro blood-brain barrier permeability
Type: in vitro ADME
Details: mean ± standard deviation
Protocol: The compounds of this invention are capable of crossing the blood-brain barrier (BBB) as shown by their ability to penetrate across a membrane of a monolayer of bovine brain microvessel endothelial cells, an in vitro model for B3B permeability.
Bovine Brain Endothelial Cells (BBMEC) TIransport Studies
The procedure was performed according to: Kenneth L. Audus et al., Brain Microvessel Endothelial Cell Culture System (Chapter 13) pp 239-258. In Models for Assessing Drug Absorption and Metabolism, Ronald T. Borchardt et al. eds., Plenum Press, New York 1996, incorporated herein by reference.

In the case of `COc1c(O[Si](C(C)C)(C(C)C)C(C)C)cccc1C(OC(=O)[C@@H](OC)c1ccccc1)C1CCN(CCc2ccc(F)cc2)CC1` (stereo partly drawn) [Example 1C, (S)-Methoxy-2-phenyl-acetic acid {1-[2-(4-fluoro-phenyl)-ethyl]-piperidin-4-yl}-(2-methoxy-3-triisopropylsilanyloxy-phenyl)-methyl ester], the Papp at 5.4 µM (5.4 μM) is reported as 41.4 ± 16.4 ×10⁻⁶ cm/s and the Papp at 16 µM (16 μM) is reported as 52.5 ± 9.5 ×10⁻⁶ cm/s.
